According to patent US20120328530A1, “TOLUIDINE BLUE DERIVATIVES AS PHOTOSENSITISING COMPOUNDS” (PHARMALUCIA LIMITED, priority 2010, published 2012):

Assays:
Assay type in all cases: cell-based
[1] = test system: Escherichia coli (NCTC 10418); assay: Photobactericidal efficacy, minimum bactericidal concentration; conditions: NCTC10418, 10^6 cfu/ml, 1 hour at 37° C. with photosensitiser, illuminated twenty minutes, LEDs 660 nm, 6.2 J cm^-2, table does not say light or dark, read-out: minimum concentration needed to achieve the antibacterial activity (minimum bactericidal concentration), E. coli
Procedure: (§1) The photobactericidal efficacies of the compounds of examples 2a to 2d in addition to that of the known photosensitiser methylene blue were measured against both Gram positive Staphylococcus aureus (NCTC 6571), Enterococcus faecalis (NCIMB 13280) and Propionibacterium acnes (NCTC 737) and Gram negative Escherichia coli (NCTC 10418), Proteus mirabilis (NCIMB 5887) and a clinical strain of Pseudomonas aeruginosa bacteria. Propionibacterium acnes was grown in reinforced clostridial medium. All other strains were grown in Mueller-Hinton Broth and then diluted to a concentration of 10^6 colony-forming units/ml. Aliquots of the strains were then incubated for 1 hour at 37° C. in microtitre trays with various concentrations of photosensitiser in doubling dilutions from 100 μM, with zero photosensitiser concentrations in each case for control purposes. The trays were then either illuminated for twenty minutes using an array of light-emitting diodes (660 nm) giving a light dose of 6.2 J cm^−2 or alternatively foil-covered to provide dark controls. From each well showing an inhibition of growth of the micro-organism, 1 μl was sub-cultured on nutrient agar, using the Miles-Misra method, and incubated for 18 hours at 37° C. The minimum bactericidal concentrations were then determined as the lowest concentration for each photosensitiser giving no bacterial growth.

[2] = test system: Staphylococcus aureus (NCTC 6571); assay: as above; conditions: NCTC6571, 10^6 cfu/ml, 1 hour at 37° C. with photosensitiser, illuminated twenty minutes, LEDs 660 nm, 6.2 J cm^-2, table does not say light or dark, read-out: minimum concentration needed to achieve the antibacterial activity (minimum bactericidal concentration), S. aureus
Procedure: as §1

[3] = test system: Candida albicans (NCPF 8179); assay: Antifungal screening, minimum concentration; conditions: Sabouraud broth and agar, carried out similarly: illuminated twenty minutes, LEDs 660 nm, 6.2 J cm^-2; table does not say light or dark
Procedure: as §1
Antifungal screening was carried out similarly against the yeast Candida albicans (NCPF 8179), using Sabouraud broth and agar.

[4] = test system: Propionibacterium acnes (NCTC 737); assay: Photobactericidal efficacy, minimum bactericidal concentration; conditions: Cutibacterium acnes, NCTC737; reinforced clostridial medium, 1 hour at 37° C. with photosensitiser, illuminated twenty minutes, LEDs 660 nm, 6.2 J cm^-2; table does not say light or dark; read-out: minimum concentration needed to achieve the antibacterial activity (minimum bactericidal concentration), Prop. acnes
Procedure: as §1

[5] = test system: clinical strain of Pseudomonas aeruginosa; assay: as above; conditions: 10^6 cfu/ml, 1 hour at 37° C. with photosensitiser, illuminated twenty minutes, LEDs 660 nm, 6.2 J cm^-2, table does not say light or dark
Procedure: as §1

[6] = test system: Enterococcus faecalis (NCIMB 13280); assay: as above; conditions: 10^6 cfu/ml, 1 hour at 37° C. with photosensitiser, illuminated twenty minutes, LEDs 660 nm, 6.2 J cm^-2; table does not say light or dark
Procedure: as §1

[7] = test system: Proteus mirabilis (NCIMB 5887); assay: as above; conditions: 10^6 cfu/ml, 1 hour at 37° C. with photosensitiser, illuminated twenty minutes, LEDs 660 nm, 6.2 J cm^-2; table does not say light or dark
Procedure: as §1

Row | Structure (SMILES) | MBC [1] | MBC [2] | minimum concentration needed to achieve the antifungal activity, Candida albicans [3] | MBC [4] | minimum concentration needed to achieve the antibacterial activity (minimum bactericidal concentration), Pseudomonas Aeruginosa [5] | minimum concentration needed to achieve the antibacterial activity (minimum bactericidal concentration), Enterococcus facecalis [6] | minimum concentration needed to achieve the antibacterial activity (minimum bactericidal concentration), Proteus mirabilis [7]
1 | CN(C)c1ccc2nc3cc(-c4ccccc4)c(N)cc3[s+]c2c1 [Compound 2d, 3-Amino-7-(dimethylamino)-2-phenylphenothiazinium hydrogensulphate] | 3.13 µM | 3.13 µM | 0.78 µmol/L |  |  |  | 
2 | CN(C)c1ccc2nc3cc(C(C)(C)C)c(N)cc3[s+]c2c1 [Compound 2c, 3-Amino-2-tert-butyl-7-(dimethylamino)phenothiazinium hydrogensulphate] | 3.13 µM | 3.13 µM | 3.13 µmol/L | 0.78 µM | 0.39 µmol/L |  | 
3 | Cc1cc2c(cc1N)=[SH]c1cc(N(C)C)ccc1N=2 [toluidine blue, Toluidine blue] |  |  | 12.5 µmol/L |  | 7.36 µmol/L | 7.36 µmol/L | 14.71 µmol/L
4 | CCCc1cc2nc3ccc(N(C)C)cc3[s+]c2cc1N [Compound 2b, 3-Amino-7-(dimethylamino)-2-n-propylphenothiazinium hydrogensulphate] | 1.32 µM | 3.13 µM | 0.78 µmol/L | 0.78 µM | 0.78 µmol/L | 0.33 µmol/L | 5.32 µmol/L
5 | CCc1cc2nc3ccc(N(C)C)cc3[s+]c2cc1N [Compound 2a] | 1.47 µM | 3.13 µM | 3.13 µmol/L | 0.78 µM | 3.13 µmol/L | 1.35 µmol/L | 5.50 µmol/L
